We go through 20 molecules from patent US20090076062A1, “Organic Compounds” (priority 2007, published 2009).

SMILES strings stand for the structures.

In this assay the target is T1, Recombinant human renin (Homo sapiens, UniProt P00797).
T1 construct: made in house; host or cells: Chinese Hamster Ovary cells
T1 sequence (P00797 67-406): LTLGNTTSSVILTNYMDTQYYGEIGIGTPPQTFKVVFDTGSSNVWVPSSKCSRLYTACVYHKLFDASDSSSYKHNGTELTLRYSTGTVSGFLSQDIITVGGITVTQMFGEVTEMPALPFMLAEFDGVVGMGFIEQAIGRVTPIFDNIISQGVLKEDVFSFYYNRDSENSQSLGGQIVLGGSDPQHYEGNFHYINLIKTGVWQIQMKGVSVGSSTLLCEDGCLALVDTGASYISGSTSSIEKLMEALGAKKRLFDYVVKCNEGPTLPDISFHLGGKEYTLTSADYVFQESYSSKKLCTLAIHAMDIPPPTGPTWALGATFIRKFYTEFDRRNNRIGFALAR
In words: Renin inhibitory activity in vitro, hu-renin FRET assay. Format: biochemical. The protocol: Recombinant human renin (expressed in Chinese Hamster Ovary cells and purified using standard methods) at 4 nM concentration is incubated with test compound at various concentrations for 1 h at RT in 0.1 M Tris-HCl buffer, pH 7.4, containing 0.05 M NaCl, 0.5 mM EDTA and 0.05% CHAPS. Synthetic peptide substrate Arg-Glu(EDANS)-Ile-His-Pro-Phe-His-Leu-Val-Ile_His_Thr-Lys(DABCYL)-Arg9 is added to a final concentration of 2 μM and increase in fluorescence is recorded at an excitation wave-length of 340 nm and at an emission wave-length of 485 nm in a microplate spectro-fluorimeter. IC50 values are calculated from percentage of inhibition of renin activity as a function of test compound concentration (Fluorescence Resonance Energy Transfer, FRET, assay). Recombinant human renin (expressed in Chinese Hamster Ovary cells and purified using standard methods) at 1 nM concentration is incubated with test compound at various concentrations for 1.5 h at 37° C. in 0.1 M Tris/HCl pH 7.4 containing 0.05 M NaCl, 0.5 mM EDTA and 0.025% (w/v) CHAPS. Synthetic peptide substrate Ac-Ile-His-Pro-Phe-His-Leu-Val-Ile-His-Asn-Lys-[DY-505-X5] is added to a final concentration of 5 μM. The enzyme reaction is stopped by adding 6 μL of 1.0% TFA. The product of the reaction is separated by HPLC and quantified by spectrophotometric measurement at […] wave-length. IC50 values are calculated from percentage of inhibition of renin activity as a function of test compound concentration.
Renin inhibitory activity was assessed in vitro by FRET assay (as above described). Results for representative compounds of formula I are: […]
As a reminder, the IC50 is the concentration needed to halve the response being measured. On to `COCCCOc1cc(C[C@@H](C[C@H](N)[C@@H](O)C[C@H](C(=O)NCC2CCCCO2)C(C)C)C(C)C)ccc1OC` (single isomer, unassigned) [Example 19, (2S,4S,5S,7S)-5-Amino-4-hydroxy-2-isopropyl-7-[4-methoxy-3-(3-methoxy-propoxy)-benzyl]-8-methyl-nonanoic acid [2(R) or 2(S)-1-(tetrahydro-pyran-2-yl)methyl]-amide], for which the IC50 came to 8 nM.

For the molecule `COCCCOc1cc(C[C@@H](C[C@H](N)[C@@H](O)C[C@H](C(=O)NCC2CCCCO2)C(C)C)C(C)C)ccc1OC` (single isomer, unassigned) [Example 20, (2S,4S,5S,7S)-5-Amino-4-hydroxy-2-isopropyl-7-[4-methoxy-3-(3-methoxy-propoxy)-benzyl]-8-methyl-nonanoic acid [(R)- or (S)-1-(tetrahydro-pyran-2-yl)methyl]-amide], the IC50 was found to be 7 nM.

Consider `COCCCOc1cc(C[C@@H](C[C@H](N)[C@@H](O)C[C@H](C(=O)NC2CCCOC2)C(C)C)C(C)C)ccc1OC` (single isomer, unassigned) [Example 22, (2S,4S,5S,7S)-5-Amino-4-hydroxy-2-isopropyl-7-[4-methoxy-3-(3-methoxy-propoxy)-benzyl]-8-methyl-nonanoic acid [(R)- or (S)-3-(tetrahydro-pyran-3-yl)]-amide], for which the IC50 amounted to 2.5 nM.

`COCCCOc1cc(C[C@@H](C[C@H](N)[C@@H](O)C[C@H](C(=O)NC2CCCOC2)C(C)C)C(C)C)ccc1OC` (single isomer, unassigned) [Example 23, (2S,4S,5S,7S)-5-Amino-4-hydroxy-2-isopropyl-7-[4-methoxy-3-(3-methoxy-propoxy)-benzyl]-8-methyl-nonanoic acid [(R)- or (S)-3-(tetrahydro-pyran-3-yl)]-amide]: the IC50 worked out at 0.5 nM.

As for `COCCCOc1cc(C[C@@H](C[C@H](N)[C@@H](O)C[C@H](C(=O)NCC2CCOC2)C(C)C)C(C)C)ccc1OC` (single isomer, unassigned) [Example 29, (2S,4S,5S,7S)-5-Amino-4-hydroxy-2-isopropyl-7-[4-methoxy-3-(3-methoxy-propoxy)-benzyl]-8-methyl-nonanoic acid [3(R) or 3(S)-1-(tetrahydro-furan-3-yl)methyl]-amide], the IC50 is 0.4 nM.

Take `COCCCOc1cc(C[C@@H](C[C@H](N)[C@@H](O)C[C@H](C(=O)NCC2CCOC2)C(C)C)C(C)C)ccc1OC` (single isomer, unassigned) [Example 30, (2S,4S,5S,7S)-5-Amino-4-hydroxy-2-isopropyl-7-[4-methoxy-3-(3-methoxy-propoxy)-benzyl]-8-methyl-nonanoic acid [(R) or (S)-1-(tetrahydro-furan-3-yl)methyl]-amide]: the IC50 came to 0.8 nM.

With `COCCCOc1cc(C[C@@H](C[C@H](N)[C@@H](O)C[C@H](C(=O)NC2CCOCC2)C(C)C)C(C)C)ccc1OC` [Example 1, (2S,4S,5S,7S)-5-Amino-4-hydroxy-2-isopropyl-7-[4-methoxy-3-(3-methoxy-propoxy)-benzyl]-8-methyl-nonanoic acid (tetrahydro-pyran-4-yl)-amide], the half-maximal inhibitory concentration (IC50) came to 1.4 nM.

On to `COCCCOc1cc(C[C@@H](C[C@H](N)[C@@H](O)C[C@H](C(=O)N[C@@H]2CCN(C)C2)C(C)C)C(C)C)ccc1OC` [Example 2, (2S,4S,5S,7S)-5-Amino-4-hydroxy-2-isopropyl-7-[4-methoxy-3-(3-methoxy-propoxy)-benzyl]-8-methyl-nonanoic acid ((R)-1-methyl-pyrrolidin-3-yl)-amide], for which the IC50 stood at 4 nM.

Turning to `COCCCOc1cc(C[C@@H](C[C@H](N)[C@@H](O)C[C@H](C(=O)N[C@H]2CCN(C)C2)C(C)C)C(C)C)ccc1OC` [Example 3, (2S,4S,5S,7S)-5-Amino-4-hydroxy-2-isopropyl-7-[4-methoxy-3-(3-methoxy-propoxy)-benzyl]-8-methyl-nonanoic acid ((S)-1-methyl-pyrrolidin-3-yl)-amide], the IC50 was 0.7 nM.

Consider `COCCCOc1cc(C[C@@H](C[C@H](N)[C@@H](O)C[C@H](C(=O)NC2CCN(C)CC2)C(C)C)C(C)C)ccc1OC` [Example 5, (2S,4S,5S,7S)-5-Amino-4-hydroxy-2-isopropyl-7-[4-methoxy-3-(3-methoxy-propoxy)-benzyl]-8-methyl-nonanoic acid (1-methyl-piperidin-4-yl)-amide], for which the 50% inhibitory concentration (IC50) was 3.2 nM.

On to `COCCCOc1cc(C[C@@H](C[C@H](N)[C@@H](O)C[C@H](C(=O)NC[C@@H]2CCCO2)C(C)C)C(C)C)ccc1OC` [Example 10, (2S,4S,5S,7S)-5-Amino-4-hydroxy-2-isopropyl-7-[4-methoxy-3-(3-methoxy-propoxy)-benzyl]-8-methyl-nonanoic acid [(S)-1-(tetrahydro-furan-2-yl)methyl]-amide], for which the half-maximal inhibitory concentration (IC50) came out at 3.5 nM.

As for `COCCCOc1cc(C[C@@H](C[C@H](N)[C@@H](O)C[C@H](C(=O)NC[C@H]2CCCO2)C(C)C)C(C)C)ccc1OC` [Example 11, (2S,4S,5S,7S)-5-Amino-4-hydroxy-2-isopropyl-7-[4-methoxy-3-(3-methoxy-propoxy)-benzyl]-8-methyl-nonanoic acid [(R)-1-(tetrahydro-furan-2-yl)methyl]-amide], the IC50 amounted to 4 nM.

For the molecule `COCCCOc1cc(C[C@@H](C[C@H](N)[C@@H](O)C[C@H](C(=O)N[C@@H]2CCOC2)C(C)C)C(C)C)ccc1OC` [Example 12, (2S,4S,5S,7S)-5-Amino-4-hydroxy-2-isopropyl-7-[4-methoxy-3-(3-methoxy-propoxy)-benzyl]-8-methyl-nonanoic acid ((R)-tetrahydrofuran-3-yl)-amide], the IC50 came to 0.7 nM.

For `COCCCOc1cc(C[C@@H](C[C@H](N)[C@@H](O)C[C@H](C(=O)N[C@H]2CCOC2)C(C)C)C(C)C)ccc1OC` [Example 13, (2S,4S,5S,7S)-5-Amino-4-hydroxy-2-isopropyl-7-[4-methoxy-3-(3-methoxy-propoxy)-benzyl]-8-methyl-nonanoic acid ((S)-tetrahydrofuran-3-yl)-amide], the IC50 turned out to be 0.2 nM.

Regarding `COCCCOc1cc(C[C@@H](C[C@H](N)[C@@H](O)C[C@H](C(=O)NCC2CCOCC2)C(C)C)C(C)C)ccc1OC` [Example 14, (2S,4S,5S,7S)-5-Amino-4-hydroxy-2-isopropyl-7-[4-methoxy-3-(3-methoxy-propoxy)-benzyl]-8-methyl-nonanoic acid (tetrahydro-pyran-4-ylmethyl)-amide], the IC50 was found to be 1.4 nM.

As to `COCCCOc1cc(C[C@@H](C[C@H](N)[C@@H](O)C[C@H](C(=O)NCc2ccoc2)C(C)C)C(C)C)ccc1OC` [Example 17, (2S,4S,5S,7S)-5-Amino-4-hydroxy-2-isopropyl-7-[4-methoxy-3-(3-methoxy-propoxy)-benzyl]-8-methyl-nonanoic acid (furan-3-ylmethyl)-amide], the IC50 was 2.5 nM.

On to `COCCCOc1cc(C[C@@H](C[C@H](N)[C@@H](O)C[C@H](C(=O)NCc2ccco2)C(C)C)C(C)C)ccc1OC` [Example 18, (2S,4S,5S,7S)-5-Amino-4-hydroxy-2-isopropyl-7-[4-methoxy-3-(3-methoxy-propoxy)-benzyl]-8-methyl-nonanoic acid (furan-2-ylmethyl)-amide], for which the half-maximal inhibitory concentration (IC50) came out at 0.9 nM.

For the molecule `COCCCOc1cc(C[C@@H](C[C@H](N)[C@@H](O)C[C@H](C(=O)NC2CCOCC2)C(C)C)C(C)C)ccc1C` [Example 26, (2S,4S,5S,7S)-5-Amino-4-hydroxy-2-isopropyl-7-[3-(3-methoxy-propoxy)-4-methyl-benzyl]-8-methyl-nonanoic acid (tetrahydro-pyran-4-yl)-amide], the half-inhibitory concentration (IC50) was found to be 0.5 nM.

`COCCCOc1cc(C[C@@H](C[C@H](N)[C@@H](O)C[C@H](C(=O)NC[C@H]2CCCO2)C(C)C)C(C)C)ccc1C` [Example 27, (2S,4S,5S,7S)-5-Amino-4-hydroxy-2-isopropyl-7-[3-(3-methoxy-propoxy)-4-methyl-benzyl]-8-methyl-nonanoic acid [(R)-1-(tetrahydro-furan-2-yl)methyl]-amide]: the IC50 was 0.5 nM.

As for `COCCCOc1cc(C[C@@H](C[C@H](N)[C@@H](O)C[C@H](C(=O)NC[C@@H]2CCCO2)C(C)C)C(C)C)ccc1C` [Example 28, (2S,4S,5S,7S)-5-Amino-4-hydroxy-2-isopropyl-7-[3-(3-methoxy-propoxy)-4-methyl-benzyl]-8-methyl-nonanoic acid [(S)-1-(tetrahydro-furan-2-yl)methyl]-amide], the IC50 was 0.6 nM.
